Entries after “also recorded” stand apart in the source; their conditions may differ.
Columns and labels:
[1] = test system: microglia, astrocytes, endothelial cells in brain; assay: Confocal/widefield immunofluorescence of brain sections (cellular localization); type: in vivo, Sprague-Dawley rat; settings: Iba-1, GFAP, von Willebrand factor
Protocol: Confocal Fluorescence: Perfused and cryopreserved rat brains were sectioned using a microtome (Leica Biosystems, #CM3050S) at 20-micron thickness. The slides were washed twice with 1×PBS and permeabilized (with 0.1% Triton-X, 0.1% BSA in PBS) for 30 min at 25° C. The permeabilized slides were blocked (1% BSA, 1% normal goat serum in PBS) for an additional 30 min at 25° C. and followed by probing with primary rabbit-anti-IBal (1:200 dilution) or […] (1:250 dilution) for 90 min at 25° C. At the end of the incubation, the slides were washed 3x with PBS and followed by incubation with secondary antibodies (Texas Red Goat-anti Rabbit, 1:500 for IBa1 and Alexa 488 goat anti-mouse, 1:500 for GFP), 1 hr at 25° C. To stain cellular nuclei, Hoechst stain was used at 1:10000 dilution. All dilutions represented as (vol/vol). The slides were washed 3× with 1×PBS and mounted with antifade media and kept at 4° C. for further analysis with confocal microscopy. […]
To both qualitatively and quantitatively confirm IL-PLGA NP selectivity for cells comprising the HIV reservoir, brain sections (40 μm) collected from rats used above were co-labeled for protein markers of astrocytes (GFAP; FIG. 3B) and microglia (Iba-1; FIG. 3C) with a Hoechst nuclear counterstain (FIG. 3A). […]

[2] = test system: red blood cells; assay: Red blood cell hitchhiking of nanoparticles coated with the ionic liquid; type: cell-based; settings: nanoparticles coated with this ionic liquid
[3] = Abacavir detection in brain regions (1H-NMR); type: in vivo, Sprague-Dawley rat; settings: 6 h; IL-PLGA NPs with 60 μg/mL ABC, intra-carotid; n=3/group
Protocol: Abacavir Detection in the Brain: In parallel with DiD-NP injections, Sprague-Dawley rats injected with IL-PLGA NPs (either without cargo or with 60 μg/mL ABC, n=3) were sacrificed at 6 hours post-injection, and whole organs were processed, and frozen post-mortem as described above in Biodistribution. In order to assess to areas of biodistribution of abacavir within the brain, the following regions were sliced and homogenized in a 1:1 mixture of 1×PBS (pH 7.4) and Acetonitrile constituting a total homogenate volume of 500 μL per sample: striatum, midbrain, interbrain, cerebellum, hypothalamus, cerebral cortex, & hippocampus. […] A range of 500-600 μL of liquid filtrate was recovered across all samples, which were all delivered into clean NMR tubes and topped 10% (v/v) with D2O to be evaluated for presence of drug by ^1H NMR at 400 MHz with 90% H2O/10% D2O water suppression.
Once biodistribution was determined with DiD, a new set of healthy, 8-week-old, female, Sprague Dawley rats with in-dwelling carotid catheters received IV infusions (under the same conditions) with either empty, or ABC-encapsulated, IL-coated PLGA NPs (n=3/group). Sites of regional distribution of abacavir cargo were evaluated within the brain (at the same 6-hour endpoint). […]

[4] = test system: HIV-1BaL; assay: HIV-1 replication in human PBMCs (p24 antigen ELISA); type: cell-based, HIV-1 (in human PBMCs); settings: days 3, 7, 10 post-infection; ABC alone or in NPs p<0.0001; empty IL-coated NPs p=0.04
Protocol: HIV Expression and Cytotoxicity: 3 independent batches of bare and CA2HA 1:2-coated PLGA NPs were prepared with abacavir (ABC) as above but in sterile Milli-Q water and re-suspended to 1 mg/ml with sterile 1×PBS pH 7.4. As ~60 μg/mL of drug was estimated by quantitative NMR, PBMC cells were stimulated with 10 μg/ml of PHA for 4 days. Stimulated PBMC cells were harvested at 400×g, RT for 10 min. The cells at 2×10^6 cells/mL were used for each experimental condition and infected with 1 ng/ml of HIV-1 Bal+ in presence of 3 ng/ml of IL-2 and 2 μg/ml of polybrene. PBMC cells were treated in the absence or presence of nanoparticles at 10 µM final concentration. […] The cell viability was determined by trypan blue at each harvesting day and an aliquot of condition media was saved for further analysis on p24 antigen assay. […] The p24 antigen assay was performed according to manufacture protocol on experimental condition media collected on 3, 7, 10 days post HIV-1 infection for quantification of HIV-1.
To assess the bioactivity of ART when encapsulated inside PLGA & IL-PLGA NPs, HIV-1 replication was assessed in human peripheral blood mononuclear cells (PBMCs) that were mock-infected or were infected with HIV-1BaL (1 ng/ml) for 10 days. […] Concentration of the HIV-1 capsid protein (p24, ng/ml) was assessed on days 3-, 7-, and 10 post-infection by enzyme-linked immunosorbent assay (ELISA) (FIG. 7).

[5] = Quantitative encapsulation of ABC (1H NMR); type: physicochemical; settings: for ABC encapsulated: ~1 mg/mL NPs, from an added 74.1 μg/mL, quantitative 1H NMR
Protocol: Quantitative encapsulation of ABC (^1H NMR): PLGA and CA2HA 1:2 PLGA NPs were synthesized in deuterium oxide as described previously, and then resuspended to 500 μL (2 mg/mL) to quantitatively measure composition of the IL coating on the surface of the PLGA NPs with 20 μL Tetramethylsilane (TMS) internal quantification standard: ^1H NMR (400 MHz, D2O) δ 6.85 (dt, J=15.8, 7.0 Hz, 27H), 5.85 (dt, J=15.7, 1.5 Hz, 28H), 4.78 (d, J=1.3 Hz, 7140H), 4.09-4.02 (m, 27H), 3.81-3.71 (m, 21H), 3.64 (dd, J=11.8, 4.5 Hz, 45H), 3.60-3.47 (m, 73H), 3.25 (s, 136H), 2.72 (d, J=1.3 Hz, 14964H), 2.19 (qd, J=7.2, 1.6 Hz, 69H), 1.56-1.46 (m, 47H), 0.91 (t, J=7.4 Hz, 96H), 0.00 (s, 12H).
To break open the NPs, bare PLGA NPs and IL-PLGA NPs were first sonicated at 60° C. for 30 minutes to destroy the outer IL coating integrity, evidenced by a phase separation of cloudiness in the IL-PLGA NPs. To next dissociate the IL coating from the polymer core, all particles were vortexed at 25° C. on the highest setting for 10 minutes (in 2-minute intervals). The particles were then stored at −80° C. for 2 minutes to protect the ABC drug while inducing a bulk phase separation, and then vortexed at the highest setting for 2 min at 25° C. Lastly, to extrude the abacavir from the polymer core, all NPs were 30 kDa MWCO centrifuge-filtered for 1 hour at 4500 RPM at 40° C. Filtrate smaller than 30 kDa was collected at the bottom of the tube and stored at −20° C., concentrated (2×) with D2O and evaluated for presence of drug by ^1H NMR at 400 MHz at the highest scan rate (proton64).
As the appearance of drug peaks were very small compared to the IL, 2 μL of TMS was then used in particular to obtain a relative understanding of the size of the small emerging peaks. […] Representation of encapsulated ABC dose was then calculated: • 0.002 mL TMS (0.648 g/mL)=0.0013 g TMS • 0.0013 g TMS/88.22 g/mol TMS=0.0000146 mol TMS • 0.0000146 mol TMS (~0.03 integral ratio, 8.5 ppm & 0 ppm peak) ~4.38×10^−7 mol ABC • 4.38× 10-7 mol ABC (286.3 g/mol ABC) ~ (0.000125 g ABC/2) (ug total ~1 mg/mL) ~62.7 μg/mL ABC encapsulated

SMILES: CCC/C=C/C(=O)O [CA2HA 1:2, Choline 2-Hexenoate 1:2]
- Cellular localization in brain [1]: colocalizes with HIV reservoir cells

SMILES: CCC/C(C)=C/C(=O)O [CA3ME2HA 1:1, Choline Trans-3-Methyl-Trans-2-Hexenoate 1:1]
- Red blood cell hitchhiking [2]: successfully hitchhike red blood cells

SMILES: CCC/C=C/C(=O)O [CA2HA 1:1, Choline 2-Hexenoate 1:1]
- Red blood cell hitchhiking [2]: successfully hitchhike red blood cells

SMILES: CCCCCCC(=O)O [CAHPA 1:1, Choline Heptanoate 1:1]
- Red blood cell hitchhiking [2]: successfully hitchhike red blood cells

SMILES: Nc1nc(NC2CC2)c2ncn([C@H]3C=C[C@@H](CO)C3)c2n1 [ABC, abacavir]
- Abacavir regional brain accumulation [3]: accumulate most greatly in the cerebellum, interbrain, striatum, and midbrain regions; also recorded: lesser (but considerable) delivery to the hippocampus, cerebral cortex, and hypothalamus regions
- HIV-1 viral replication (p24) vs HIV-infected cells [4]: significantly attenuated viral replication
- Encapsulation efficiency (EE) of ABC ([5]; ABC 2%, estimated by quantitative 1H NMR): ~ 84.6%
- ABC encapsulated [5]: ~ 62.7 μg/mL
- ABC encapsulated ([5]; listed as abacavir (ABC)): ~ 60 μg/mL

SMILES: CC/C=C/CC(=O)O [CA3HA 1:1, Choline 3-Hexenoate 1:1]
- Red blood cell hitchhiking [2]: successfully hitchhike red blood cells

SMILES: CC/C=C(\C)C(=O)O [CAGAS 1:2, Choline trans-2-Methyl-2-Pentenoate 1:2]
- Red blood cell hitchhiking [2]: successfully hitchhike red blood cells

SMILES: CC/C(C)=C/C(=O)O [CA3ME2PE 1:1, Choline Trans-3-Methyl-Trans-2-Pentenoate 1:1]
- Red blood cell hitchhiking [2]: successfully hitchhike red blood cells

Reference: patent US20260335251A1, “RED BLOOD CELL-HITCHHIKING IONIC LIQUID COATED NANOPARTICLES FOR CROSSING THE BLOOD BRAIN BARRIER” (University of Mississippi, priority 2022, published 2026)
